Results as given in patent publication US20230210881A1, “NICOTINAMIDE MONONUCLEOTIDE DERIVATIVES FOR THE TREATMENT OF BACTERIAL INFECTIONS” (NUVAMID SA, priority 2020, published 2023).

Columns and labels:
[1] = system: caecal ligation and puncture (LPC) induced sepsis; assay: Caecal ligation and puncture (LPC) induced sepsis model; format: in vivo, mice; settings: for survival rate: compared with the control group; for Number of surviving mice: 185 mg/kg i.p. once daily; for bacterial load in the blood (bacterial DNA 16S by RT-PCR): 24 hours after LPC; for bacterial load in the blood (bacterial DNA 16S by RT-PCR) / clinical score (murine sepsis score): compared to the control group; for clinical score (murine sepsis score): after LPC at 24, 48, 72 and 96 hours; for temperature after LPC: rectal temperature, 24 hours after surgery
Experimental: The purpose of this study is to evaluate the effect of administration of compounds according to the invention (I-A and I-B) on the survival rate of mice in a caecal ligation and puncture (LPC) induced sepsis model.
The study consists of creating a sepsis model in mice by caecal ligation and puncture (LPC) and evaluating the impact of compounds I-A and I-B on the development of sepsis for 4 days.
The test compounds are administered at 185 mg/kg, intraperitoneally, immediately after the LPC procedure, and then once daily at 24, 48, and 72 hours. The remaining mice are euthanized at 96 hours post-LPC. Vehicle (physiological buffer) is used as a control and administered under the same conditions.
Mice are anesthetized with 3% Vetoflurane. A laparotomy is performed to exteriorize the caecum. For induction of medium grade sepsis, the caecum is ligated between the distal pole and the base of the caecum. A through puncture with a 21-gauge needle is performed. A small amount of excreta is extruded from the mesenteric and antimesenteric penetration holes to ensure patency. The caecum is repositioned over the abdominal cavity. The peritoneum, fascia, abdominal musculature and then the skin are closed by applying simple sutures. The animals are resuscitated by injecting pre-warmed normal saline (37° C.; 5 ml per 100 g body weight) subcutaneously.
Administration of Compound I-A at 185 mg/kg, Compound I-B at 185 mg/kg and vehicle (physiological buffer) is performed intraperitoneally immediately after LPC surgery and then once daily at 24, 48 and 72 hours post LPC.
Survival is assessed every 12 hours for the first two days, then once a day until euthanasia.
Rectal temperature is checked every 2 to 4 hours for the first day, then twice for the second day.
These two parameters are monitored once a day.
The clinical score is defined according to the criteria defined in Table 3:
24 hours after surgery, mice were anesthetized with Vetoflurane and blood was collected from the retroorbital sinus to quantify the bacterial load. Bacterial DNA (16S) is extracted and quantified by RT-PCR.

[2] = system: Escherichia coli; assay: Non-lethal model of Escherichia coli induced pneumonia, bacterial culture in the spleen; format: in vivo, BALB/c mice; settings: for bacteria in the spleen: pre-treatment 185 mg/kg
Experimental: The purpose of this study is to evaluate the effect of pre-treatment, with an NAD precursor, on the spread of bacterial infection to the spleen in a mouse model of non-lethal Escherichia coli (E. coli) induced pneumonia.
The administration of the compound at 185 mg/kg and the vehicle (physiological buffer) is performed intraperitoneally and/or intratracheally.
The compound of formula I-A (white powder) is dissolved in the vehicle. The solution is used at room temperature for a maximum of 1 day and freshly prepared for each new experiment.
Immediately before use, the E. coli culture was washed twice with 0.9% NaCl. After the second wash, the pellet was re-suspended in sterile saline and the dose calibrated by nephelometry.
Female BALB/c mice (20-24 g) were then inoculated using intratracheal insertion of a gavage needle (24 G) for injection of 75 μL of the bacterial suspension.
The compound of formula I-A and the vehicle are administered to the animals intraperitoneally and/or intratracheally. The injection of the compound of formula I-A is performed 24 hours prior to the infection with Escherichia coli. Simulated animals are given a physiological buffer by intraperitoneal administration.
At 24 hours, 48 hours, and 72 hours postoperatively, spleens from sacrificed animals were weighed and homogenized in 1 mL of saline. These solutions were then used for quantitative agar gel cultures during 24 hours of incubation at 37° C. Viable bacterial colony counts are expressed as Log 10 CFU per gram of organ.

[3] = system: Pseudomonas aeruginosa PAO1; assay: Mouse model of respiratory tract infection induced by Pseudomonas aeruginosa PAO1, bacterial load; format: in vivo, mice; settings: day 5 post infection, I-A 185 mg/kg i.p., ciprofloxacin 2 mg/kg i.p., once a day
Experimental: The vehicle (physiological buffer) is used as a control and is administered under the same conditions.
In each group, the bacterial load in the blood and lungs is assessed on day 5 post infection.
Leukopenia is induced by intraperitoneal injections of cyclophosphamide 4 days and 1 day before infection, with doses of 150 mg/kg and 100 mg/kg, respectively. P. aeruginosa PAO1 was obtained from ATCC. One vial is thawed and diluted in sterile PBS on the day of infection.
Bacterial load is assessed in blood and lungs on day 5. Quantitative cultures on agar gel are performed during 24 hours of incubation at 37° C. Viable bacterial colony counts are expressed as Log 10 CFU per mL of blood or per gram of organ.

SMILES	survival rate ([1]; 185 mg/kg i.p.)	Number of surviving mice ([1]; 24 h after LPC)	bacterial load in the blood (bacterial DNA 16S by RT-PCR) [1]	Number of surviving mice ([1]; 48 h after LPC)	Number of surviving mice ([1]; 72 h after LPC)	Number of surviving mice ([1]; 96 h after LPC)	clinical score (murine sepsis score) [1]	weight loss ([1]; after LPC over 24-96 hours, 185 mg/kg i.p.)	temperature after LPC ([1]; 185 mg/kg i.p.)	percentage of animals with bacteria in the spleen ([2]; after 24 hours, compared to the control group)	percentage of positive bacterial culture in the spleen ([2]; pre-treatment 185 mg/kg 24 hours prior to infection, intraperitoneal administration, compared to untreated mice (control))	bacteria in the spleen ([2]; 48 h after intraperitoneal administration)	bacteria in the spleen ([2]; 72 h after intratracheal administration)	spread of bacteria from the lungs to the spleen ([2]; pre-treatment, intraperitoneal and/or intratracheal administration)	reduction of blood bacterial load compared to the vehicle group [3]	pulmonary bacterial load ([3]; compared with the vehicle group)
NC(=O)c1ccc[n+]([C@H]2O[C@H](COP(=O)([O-])O)[C@@H](O)[C@H]2O)c1 [Compound I-B]	improved	12/12	significantly decreased	9/12	8/12	6/12	very significantly improved	the weight loss is less	regain their basal temperature							
NC(=O)c1ccc[n+]([C@@H]2O[C@H](COP(=O)([O-])O)[C@@H](O)[C@H]2O)c1 [Compound I-A]	improved	12/12	significantly decreased	11/12	10/12	9/12	very significantly improved		regain their basal temperature	greatly reduced	reduced the percentage of positive cultures in the spleen	no bacteria were found in the spleen	no bacteria were found in the spleen	prevented the spread of bacteria from the lungs to the spleen	approximately 2 log	antibacterial effect
